The source of these data is patent US4329349A, “6-C1-4 Alkyl-7-phenyl or substituted phenyl-1,6-naphthyridine-5(6H)-ones” (Sandoz, Inc., priority 1980, dated 1982).

Format in all cases: in vivo
The test system of assay [1] is male Royal Hart mice (rotarod time). The assay can be described thus: Test A (Rotarod Test), muscle relaxant. The conditions noted are these: for ED50: Mus musculus, tested 30 and 60 minutes after administration, read-out: ED50 (dose which decreases the rotarod time by 50%); for percent change in rotarod time: 200 mg./kg. p.o., vs control. The source says: (§1) The compounds of Formula I and the pharmaceutically acceptable acid addition salts thereof are useful for the treatment of inflammation in animals (e.g., mammals) as indicated by Test E and, with the exception of those wherein R2 is 4-NR5 R6 and R3 and R4 are hydrogen, as muscle relaxants in animals (e.g., mammals) as indicated by Tests A, B, C and D. The preferred compounds of Formula I and pharmaceutically acceptable acid addition salts set forth above are those that are preferred for muscle relaxation.
Test A (Rotarod Test): A modification of the rotarod method of Dunham et al., J. Am. Pharm. Assoc. 46, 208 (1957), is used. Groups of 5 male Royal Hart mice weighing 20-25 g. are trained to ride a rod revolving at 15 r.p.m. covered with corrugated paper for 60-90 seconds. Ability of the mice to remain on the rod is tested again at 30 minutes and 60 minutes after intraperitoneal or oral administration of the drug (the compound of Formula I in free base or pharmaceutically acceptable acid addition salt form) at a dose of 20-400 mg./kg. body weight or saline. Rotarod times for control and treated groups are compared to determine the percent change. The ED50 is the dose of the drug which decreases the rotarod time by 50% or is calculated by interpolation.
(The rotarod test checks motor coordination on a turning rod.)

In assay [2] the test system is mono (patellar)--and poly (flexor)--synaptic gross spinal reflexes. The assay can be described thus: Test B (Gross Spinal Reflex), muscle relaxant. The conditions noted are these: Felis catus, iv, cats, alpha chloralose anesthesia, progressively accumulating doses; read-out: ED50 (dose that reduces the response by 50%).
Text: as §1
Test B (Gross Spinal Reflex): Male cats weighing 2.5-3.0 kg. are utilized to study the effects of drugs on the mono (patellar)--and poly (flexor)--synaptic gross spinal reflexes. A Grass Model 7 polygraph with two ft. 03 force displacement transducers and two low level D.C. pre-amplifiers is utilized to measure the flexor and patellar responses.
Anesthesia is induced with ether, followed by an i.v. injection of alpha chloralose dissolved in warm distilled water at a dose of 70 mg./kg. body weight. […]
A drill bit pin is inserted just behind the lateral epicondyle of the left femur. […] Contraction of the left leg is measured via a force displacement transducer. […]
A series of control responses is recorded prior to administration of the drug (compound of Formula I in free base or pharmaceutically acceptable acid addition salt form). […]

The subject of assay [3] is linguomandibular reflex. The assay can be described thus: Test D (Linguomandibular Reflex (LMR)), muscle relaxant. The settings on record: Felis catus, iv, cats, alpha chloralose anesthesia; read-out: ED50 (dose that reduces the response by 50%).
Text: as §1
Test D (Linguomandibular Reflex (LMR)): The linguomandibular reflex is a polysynaptic reflex involving interneurons within the brain stem. Inhibition of the linguomandibular reflex has been correlated with central muscle relaxant activity. See Bhargava et al., Brit. J. Pharmacol. 25, 74-80 (1965).
Male cats weighing 2.0-3.0 kg. are utilized to study the effect of a drug on the linguomandibular reflex. […]
The head of the cat is rigidly fixed in a Kopf stereotaxic u-frame assembly allowing the lower jaw (mandible) to move freely. The movement of the lower jaw is recorded through a system of surgical thread, pulleys and a ft. […]
After consistent linguomandibular responses are obtained, the test drug (compound of Formula I in free base or pharmaceutically acceptable acid addition salt form) is administered intravenously at a dose of 2-50 mg./kg. body weight and its effect is recorded. […]

For assay [4], the system named is carrageenan-induced edema. The assay can be described thus: Test E (Acute Carrageenan-Induced Edema), anti-inflammatory. The settings on record: Rattus norvegicus, po, 3 h; p.o., rats, one hour prior to carrageenan; edema measured three hours after carrageenan.
Text: as §1
Test E (Acute Carrageenan-Induced Edema): Rats are orally dosed (10-200 mg./kg. body weight) with the test drug (compound of Formula I in free base or pharmaceutically acceptable acid addition salt form) one hour prior to administration of carrageenan; edema is measured three hours subsequent to the carrageenan administration. See Winter, Proc. Soc. Exp. Biol. 111, 544 (1962).

Where two headings read alike, the source gives them in different places.

Broadly, the ED50 is the dose at which the effect has come halfway, by size or by number of responders. For the molecule `Cn1c(-c2ccccc2Cl)cc2ncccc2c1=O` [Example 4, 7-(2'-Chlorophenyl)-6-methyl-1,6-naphthyridine-5(6H)-one], the ED50 turned out to be 49.3 mg/kg in assay [1] (ip); 39.1 mg/kg in assay [1] (po); 1.6 mg/kg in assay [2]; 4.6 mg/kg in assay [3]; 29 mg/kg in assay [4].
For the molecule `Cc1ccccc1-c1cc2ncccc2c(=O)n1C` [Example 6, 6-Methyl-7-(2'-methylphenyl)-1,6-naphthyridine-5-(6H)-one], the ED50 is 36.8 mg/kg in assay [1] (ip) and 43.5 mg/kg in assay [1] (po).
With `CN(C)c1cccc(-c2cc3ncccc3c(=O)n2C)c1` [Example 8, 7-(3'-Dimethylaminophenyl)-6-methyl-1,6-naphthyridine-5(6H)-one], the “percent change in rotarod time” value in assay [1] is recorded as 47.3%. The median effective dose (ED50) in assay [1] (ip) was found to be 141 mg/kg.
With `Cn1c(-c2ccc(Cl)cc2)cc2ncccc2c1=O` [Example 11, 7-(4'-Chlorophenyl)-6-methyl-1,6-naphthyridine-5-(6H)-one], the “percent change in rotarod time” value in assay [1] amounted to 32%. Also, in assay [1] (ip), the median effective dose (ED50) came out at 134 mg/kg.
